# Results: patent US10322104B2, “Disulfur bridge linkers for conjugation of a cell-binding molecule” (Suzhou M-Conj Biotech Co., Ltd., priority 2015, dated 2019)
# Experiments:
# [1] = test system: human gastric carcinoma N-87 cell line tumor xenograft; test: Antitumor activity in vivo, N-87 tumor xenograft; parameters: species or system female BALB/c Nude mice; conditions: one injection
# Description: Five-week-old female BALB/c Nude mice (30 animals) were inoculated subcutaneously in the area under the right shoulder with N-87 carcinoma cells (5×10^6 cells/mouse) in 0.1 mL of serum-free medium. The tumors were grown for 8 days to an average size of 136 mm^3. The animals were then randomly divided into 5 groups (6 animals per group). The first group of mice served as the control group and was treated with the phosphate-buffered saline vehicle. […] Three dimensions of the tumor were measured every 4 days and the tumor volumes were calculated using the formula tumor volume=½ (length×width×height). The weight of the animals was also measured at the same time. A mouse was sacrificed when any one of the following criteria was met: (1) loss of body weight of more than 20% from pretreatment weight, (2) tumor volume larger than 1500 mm^3, (3) too sick to reach food and water, or (4) skin necrosis. A mouse was considered to be tumor-free if no tumor was palpable.
# [2] = test system: HL-60, a human promyelocytic leukemia cell line (Ag−); test: In vitro cytotoxicity (MTT), HL-60 cells; type: cell-based; conditions: 120 hours incubation, read-out: IC50 (nM) HL60 cell (Ag−)
# Description: (§1) The cell lines used in the cytotoxicity assays were HL-60, a human promyelocytic leukemia cell line; NCI-N87, a human gastric carcinoma cell line; and SKOV3, a human ovarian carcinoma cell line. For HL-60, and NCI-N87, the cells were grown in RPMI-1640 with 10% FBS. For SKOV3 cells, the cells were grown in McCoy's 5A Medium with 10% FBS. To run the assay, the cells (180 μl, 6000 cells) were added to each well in a 96-well plate and incubated for 24 hours at 37° C. with 5% CO2. Next, the cells were treated with test compounds (20 μl) at various concentrations in appropriate cell culture medium (total volume, 0.2 mL). The control wells contain cells and the medium but lack the test compounds. The plates were incubated for 120 hours at 37° C. with 5% CO2. MTT (5 mg/ml) was then added to the wells (20 μl) and the plates were incubated for 1.5 hr at 37° C. The medium was carefully removed and DMSO (180 μl) was added afterward. After it was shaken for 15 min, the absorbance was measured at 490 nm and 570 nm with a reference filter of 620 nm. The inhibition % was calculated according to the following equation: inhibition %=[1−(assay-blank)/(control-blank)]×100.
# [3] = test system: SKOV3, a human ovarian carcinoma cell line (Ag+); test: In vitro cytotoxicity (MTT), SK-OV-3 cells; type: cell-based
# Description: as §1
# [4] = test system: NCI-N87, a human gastric carcinoma cell line (Ag+); test: In vitro cytotoxicity (MTT), N87 cells; type: cell-based
# Description: as §1
# [5] = relative to HL60 cell (Ag−) IC50
substance,measurement,setting,value
T-DM1,animals with no tumor measurable,"[1]; 5 mg/Kg i.v., at days 13 and 21 until day 37 and 45, 6 animals per group",2/6
same,duration of tumor growth inhibition,"[1]; 5 mg/kg, i.v.",about 44 days
same,anti-tumor effect (FIG. 12),"[1]; 5 mg/kg, i.v., day 13˜21 till day 60 (the end of experiment)",did not completely eliminate the tumor
same,IC50,[2],> 15 nM
same,IC50,"[3]; MTT, 120 hours incubation",0.177 nM
same,Specificity for SK-OV-3 cell,[3]; [5],over 84
same,IC50,"[4]; MTT, 120 hours incubation",0.266 nM
same,Specificity for N87 cell,[4]; [5],over 56
